Reference: the supplement of paper PMC11628255, “Interference of metal ions on the bioluminescent signal of firefly, Renilla, and NanoLuc luciferases in high-throughput screening assays” (Frontiers in Chemistry, 2024)
± gives the standard deviation of the averaged measurements.

Each compound was assayed on Renilla luciferase (RLuc) (assay: normalised percent inhibition of luminescence (vs positive and negative controls); higher = stronger inhibition). Conditions: metal salt concentration 5 mM; 100 mM HEPES buffer.
Protocol: (§1)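 Concentration-response (>=11 concentrations) of metal salts on purified FLuc, NLuc or RLuc luminescence in screening (SC) or 100 mM HEPES (H) buffer; salt pre-incubated with enzyme 10 min at RT, read 10 min after substrate. Normalised percent inhibition vs plate positive (PTC-124, isradipine, BTS) and DMSO negative controls; triplicate wells.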

Compound | normalised percent inhibition
O=[N+]([O-])[O-].[Ag+] [silver nitrate] | 106 ± 1.5%
CC#N.CC#N.CC#N.CC#N.F[B-](F)(F)F.[Cu+] [tetrakis(acetonitrile)copper(I) tetrafluoroborate] | 107 ± 1.7%

Same assay, conditions: metal salt concentration 5 mM; screening conditions buffer

Compound | normalised percent inhibition
O=[N+]([O-])[O-].O=[N+]([O-])[O-].[Cd+2] [cadmium nitrate] | 93.4 ± 2.4%
[Cl][Sn][Cl] [tin(II) chloride] | 103 ± 2.7%
O=S(=O)([O-])[O-].[Fe+2] [iron(II) sulfate] | 105 ± 1.6%
O=[N+]([O-])[O-].O=[N+]([O-])[O-].[Pb+2] [lead(II) nitrate] | 94.9 ± 7.4%
O=[N+]([O-])[O-].O=[N+]([O-])[O-].[Zn+2] [zinc nitrate] | 85.5 ± 9.5%
O=[N+]([O-])[O-].[Ag+] [silver nitrate] | 106.1 ± 0.41%
CC#N.CC#N.CC#N.CC#N.F[B-](F)(F)F.[Cu+] [tetrakis(acetonitrile)copper(I) tetrafluoroborate] | 106.5 ± 0.51%

These compounds were tested on firefly luciferase (FLuc) in the same assay as above. Conditions: metal salt concentration 1.56 nM; screening conditions buffer.
Protocol: as §1

Compound | normalised percent inhibition
O=[N+]([O-])[O-].[Ag+] [silver nitrate] | -3.5 ± 6%

Same assay, conditions: metal salt concentration 3.13 nM; screening conditions buffer

Compound | normalised percent inhibition
O=[N+]([O-])[O-].[Ag+] [silver nitrate] | 8.07 ± 5.3%

Same assay, conditions: metal salt concentration 6.25 nM; screening conditions buffer

Compound | normalised percent inhibition
O=[N+]([O-])[O-].[Ag+] [silver nitrate] | -11.6 ± 7.4%

Same assay, conditions: metal salt concentration 10 nM; 100 mM HEPES buffer

Compound | normalised percent inhibition
O=[N+]([O-])[O-].O=[N+]([O-])[O-].[Zn+2] [zinc nitrate] | 16.5 ± 1.9%

Same assay, conditions: metal salt concentration 12.5 nM; screening conditions buffer

Compound | normalised percent inhibition
O=[N+]([O-])[O-].[Ag+] [silver nitrate] | 2.67 ± 4.2%

Same assay, conditions: metal salt concentration 15.6 nM; 100 mM HEPES buffer

normalised percent inhibition | Compound
31.6 ± 5.6% | CC#N.CC#N.CC#N.CC#N.F[B-](F)(F)F.[Cu+] [tetrakis(acetonitrile)copper(I) tetrafluoroborate]

Same assay, conditions: metal salt concentration 25 nM; screening conditions buffer

Compound | normalised percent inhibition
O=[N+]([O-])[O-].[Ag+] [silver nitrate] | -5.14 ± 3.2%

Same assay, conditions: metal salt concentration 31.25 nM; 100 mM HEPES buffer

normalised percent inhibition | Compound
19.4 ± 5.8% | CC#N.CC#N.CC#N.CC#N.F[B-](F)(F)F.[Cu+] [tetrakis(acetonitrile)copper(I) tetrafluoroborate]

Same assay, conditions: metal salt concentration 50 nM; 100 mM HEPES buffer

Compound | normalised percent inhibition
O=[N+]([O-])[O-].O=[N+]([O-])[O-].[Zn+2] [zinc nitrate] | -0.254 ± 9.7%

Same assay, conditions: metal salt concentration 50 nM; screening conditions buffer

Compound | normalised percent inhibition
O=[N+]([O-])[O-].[Ag+] [silver nitrate] | 1.37 ± 6.6%

Same assay, conditions: metal salt concentration 62.5 nM; 100 mM HEPES buffer

normalised percent inhibition | Compound
94.7 ± 2.4% | CC#N.CC#N.CC#N.CC#N.F[B-](F)(F)F.[Cu+] [tetrakis(acetonitrile)copper(I) tetrafluoroborate]

Same assay, conditions: metal salt concentration 0.0001 mM; 100 mM HEPES buffer

Compound | normalised percent inhibition
O=[N+]([O-])[O-].O=[N+]([O-])[O-].[Cd+2] [cadmium nitrate] | -14 ± 17%
[Cl][Sn][Cl] [tin(II) chloride] | -37.6 ± 15%
O=S(=O)([O-])[O-].[Fe+2] [iron(II) sulfate] | -15.4 ± 19%
O.O.O.O.O.O.O.O=S(=O)([O-])[O-].[Mg+2] [magnesium sulfate] | -19.2 ± 9.8%
O=[N+]([O-])[O-].O=[N+]([O-])[O-].[Pb+2] [lead(II) nitrate] | -33.9 ± 8.6%
O=[N+]([O-])[O-].O=[N+]([O-])[O-].[Zn+2] [zinc nitrate] | -1.38 ± 27%
O=[N+]([O-])[O-].[Ag+] [silver nitrate] | 98 ± 2.2%
CC#N.CC#N.CC#N.CC#N.F[B-](F)(F)F.[Cu+] [tetrakis(acetonitrile)copper(I) tetrafluoroborate] | 98.82 ± 0.68%

Same assay, conditions: metal salt concentration 0.0001 mM; screening conditions buffer

Compound | normalised percent inhibition
O=[N+]([O-])[O-].[Ag+] [silver nitrate] | 0.486 ± 5.2%

Same assay, conditions: metal salt concentration 0.000125 mM; 100 mM HEPES buffer

normalised percent inhibition | Compound
99.64 ± 0.61% | CC#N.CC#N.CC#N.CC#N.F[B-](F)(F)F.[Cu+] [tetrakis(acetonitrile)copper(I) tetrafluoroborate]

Same assay, conditions: metal salt concentration 0.00025 mM; 100 mM HEPES buffer

Compound | normalised percent inhibition
O=[N+]([O-])[O-].O=[N+]([O-])[O-].[Cd+2] [cadmium nitrate] | -6.16 ± 21%
[Cl][Sn][Cl] [tin(II) chloride] | -36.8 ± 6.8%
O=S(=O)([O-])[O-].[Fe+2] [iron(II) sulfate] | -21.3 ± 21%
O.O.O.O.O.O.O.O=S(=O)([O-])[O-].[Mg+2] [magnesium sulfate] | -27.4 ± 15%
O=[N+]([O-])[O-].O=[N+]([O-])[O-].[Pb+2] [lead(II) nitrate] | -19.7 ± 5.7%
O=[N+]([O-])[O-].O=[N+]([O-])[O-].[Zn+2] [zinc nitrate] | 5.03 ± 18%
O=[N+]([O-])[O-].[Ag+] [silver nitrate] | 100.3 ± 0.19%
CC#N.CC#N.CC#N.CC#N.F[B-](F)(F)F.[Cu+] [tetrakis(acetonitrile)copper(I) tetrafluoroborate] | 99.92 ± 0.95%

Same assay, conditions: metal salt concentration 0.00025 mM; screening conditions buffer

Compound | normalised percent inhibition
O=[N+]([O-])[O-].[Ag+] [silver nitrate] | 54.3 ± 6.3%

Same assay, conditions: metal salt concentration 0.0005 mM; 100 mM HEPES buffer

Compound | normalised percent inhibition
O=[N+]([O-])[O-].O=[N+]([O-])[O-].[Cd+2] [cadmium nitrate] | 6.48 ± 9.1%
[Cl][Sn][Cl] [tin(II) chloride] | -25.8 ± 14%
O=S(=O)([O-])[O-].[Fe+2] [iron(II) sulfate] | -14.6 ± 9.3%
O.O.O.O.O.O.O.O=S(=O)([O-])[O-].[Mg+2] [magnesium sulfate] | -11 ± 16%
O=[N+]([O-])[O-].O=[N+]([O-])[O-].[Pb+2] [lead(II) nitrate] | -15.9 ± 13%
O=[N+]([O-])[O-].O=[N+]([O-])[O-].[Zn+2] [zinc nitrate] | 35.7 ± 11%
O=[N+]([O-])[O-].[Ag+] [silver nitrate] | 99.84 ± 0.56%
CC#N.CC#N.CC#N.CC#N.F[B-](F)(F)F.[Cu+] [tetrakis(acetonitrile)copper(I) tetrafluoroborate] | 100.6 ± 0.27%

Same assay, conditions: metal salt concentration 0.0005 mM; screening conditions buffer

Compound | normalised percent inhibition
O=[N+]([O-])[O-].[Ag+] [silver nitrate] | 100.1 ± 0.16%
CC#N.CC#N.CC#N.CC#N.F[B-](F)(F)F.[Cu+] [tetrakis(acetonitrile)copper(I) tetrafluoroborate] | 19.7 ± 6.5%

Same assay, conditions: metal salt concentration 0.001 mM; 100 mM HEPES buffer

Compound | normalised percent inhibition
O=[N+]([O-])[O-].O=[N+]([O-])[O-].[Cd+2] [cadmium nitrate] | 33.8 ± 4.1%
[Cl][Sn][Cl] [tin(II) chloride] | -45.1 ± 15%
O=S(=O)([O-])[O-].[Fe+2] [iron(II) sulfate] | 25.9 ± 67%
O.O.O.O.O.O.O.O=S(=O)([O-])[O-].[Mg+2] [magnesium sulfate] | -24 ± 12%
O=[N+]([O-])[O-].O=[N+]([O-])[O-].[Pb+2] [lead(II) nitrate] | -1.03 ± 17%
O=[N+]([O-])[O-].O=[N+]([O-])[O-].[Zn+2] [zinc nitrate] | 47.4 ± 13%
O=[N+]([O-])[O-].[Ag+] [silver nitrate] | 100.3 ± 0.19%
